The source of these data is patent US12667584B2, “Adenosine analog and its use in regulating the circadian clock” (NATIONAL INSTITUTE OF BIOLOGICAL SCIENCES, BEIJING, priority 2017, dated 2026).

Experiment [1] has as its system C57BL/6j mice. Kind of experiment: Wheel running jet-lag experiment, 8 h phase advance or delay. Format: in vivo, mouse. The note with it: for With Pentostadin Cell Assay: Dose effect: 15 mg/kg. As to the method: Wheel running experiment: Male C57Bj/6 mice at 7 w old were purchased from the Nanjing Biomedical Research Institute of Nanjing University introduced from Jackson Laboratory, housed in individually wheel-running cage in a temperature- and humidity-controlled SPF facility, with ad libitum access to food and water. The animals were entrained under 12 h light/dark photoperiod for two weeks to synchronize the endogenous circadian clock of the mice to the ambient light-dark cycle, light intensity is about 50˜100 lux. After synchronization, light-dark cycles were 8-hr phase-advanced or phase-delayed. On the day of light-dark cycle was shifted advance, mice were firstly fasted at CT 3, then 15 mg/kg bw CA03, 15 and 30 mg/kg bw pro-CA03, 15 and 30 mg/kg bw pro-CA04 or DMSO were intraperitoneal injection at CT 12, and light on time (CT 0) was shifted from 7 am to 11 pm), finally re-feed and inject drug again at CT 23 of the old light-dark cycle. CA03 and pro-CA04 were firstly dissolved in DMSO to the concentration of 200 μg/μl, then dilute with saline to the final concentration of 1000 μg/ml for intraperitoneal injection. Pro-03 was firstly dissolved in DMSO to the concentration of 200 μg/μl, then dilute with 2% tween80 (in sterilized water) to the final concentration of 1000 μg/ml for intraperitoneal injection. On the day of light-dark cycle was shifted delayed, mice were firstly fasted at ZT 3, then 15 mg/kg bw CA03, 15 and 30 mg/kg bw pro-CA03, 15 and 30 mg/kg bw pro-CA04 or DMSO were intraperitoneal injection at CT 12, and light off time (CT12) was shifted from […] to 3 am), finally re-feed and inject drug again at CT 23 of the old light-dark cycle. Locomotor activity was recorded in 10-min bins wheel running (Actimetrics), and the data obtained were analysed with Clocklab software (Actimetrics). All animal experimental procedures were performed in accordance with the protocol approved by the Institutional Animal Care and Usage Committee (IACUC) of the National Institute of Biological Sciences, Beijing.
Under a standard jet-lag protocol {Yamaguchi, 2013}, wild-type C57BL/6j mice usually take ˜10 d to adapt to 8 h phase advance. […] Similarly, the drug treated mice adapt faster to the phase delay (FIG. 2D&2E).
To test whether cordycepin function in vivo, we firstly tested luciferase signal level by live imaging of Per2:LUC mice after intraperitoneal injection of 15 mg/kg cordycepin or DMSO. We found cordycepin induce more than 4 folds increase of luciferase signal in liver when compared with DMSO control (A). […] We also reconfirmed endogenous transcription rate of core clock genes by measuring the pre-mRNA with qPCR in the liver (B). We examined RRE genes (including Bmal1, Clock, Npas2, Cry1 and Nfil3), internal control genes (including Gapdh, Tbp and Actin) and E-box genes (including Per1, Per2, Dbp and Nr1d1). We designed at least 2 primers for each gene. […] Prior evaluation the jet-leg cure ability of cordycepin, we detected whether cordycepin and it's prodrug pro-CA03 can penetrate BBB. We injected cordycepin or pro-CA03 via tail vein and time course sampled CSF and analyzed cordycepin pro-CA03 level with HPLC-MASS method. […] Finally we evaluated the jet-leg cure ability of cordycepin, pro-CA03 and Pro-CA04 with mice behavioral experiment. Wild-type C57BL/6j mice typically take ˜10 days to adapt to an 8 h phase advance. […]

Experiment [2] concerns Per2:luc U2OS cells. Kind of experiment: Real-time monitoring of circadian oscillation in lumicycle, Per2:luc U2OS cells. In kind it is cell-based, human. To be noted: for effect on the clock phase: in words. As to the method:
Cell culture, drug treatment and Real-Time Monitoring of Circadian Oscillations: Per2-Luc reporter U2OS cells (D15) and Bmal1-Luc reporter U2OS cells (C26) cells were kept in DMEM medium (Gibco), supplemented with 10% FBS (Gibco) and 1% penicillin streptomycin mixture (Gibco). For Circadian Oscillation monitored with lumicycle (Actimetrics), cells were seeded at the density of 10^6 per 3.5 cm dish (Z688851-30EA). The medium was changed into XM medium (PH7.2, 10 mM HEPES, 350 mg/I bicarbonate, 1×B27, 100 IU/ml penicillin, 100 μg/ml streptomycin, 10 μg/ml gentamycin, and 100 μM d-Luciferin) 2 days after cell seeding. 3.5 cm dish was then sealed with high-vacuum grease (Dow Corning) and microscope cover glass, and transferred into lumicycle which was placed in an incubator (37° C.). For Drug treatment, 3.5 cm dish was taken out from lumicycle quickly at indicated time. After chemical was added into the medium, the dish was sealed again and put back into lumicycle. For Circadian Oscillation monitored with Tecan (Perkinelmer), cells were seeded at the density of […] per well for 384-well plate (CLS3610-48EA). 2 days later, the medium was changed into premixed XM medium with different chemicals with or without pentostatin (5 μg/ml). The plate was then sealing with sealing film (Sangon Biotech) and put into Tecan. Data from cells were collected in the Tecan luminometer at 37° C. for 5˜7 days.
The inventors conducted a chemical screen using the human osteosarcoma U2OS cell line so as to discover small molecules that modify the phase of the intracellular clock in mammals. In the primary screen, the inventors used two reporter lines of U2OS harboring a luciferase gene under control of either Per2 or Bmal1 promoter (named Per2-dLuc or Bmal1-dLuc cells), and set the threshold for at least 6 h phase-changes with no apparent amplitude-reduction in both cell lines. […] An institutional pilot chemical library consisting of approximately 10,000 small molecules was applied in this study. […] The inventors set to allow a free-run of the clock before administration of the compound over the course in order to eliminate the possibility that this phase-changing phenomenon was due to a combinative phenotype of medium-change plus the compound effect.
Circadian clock is a transcriptional based feedback loop, however different clock genes contain different cis-element and may show different response to the same stimulation. […] Since the close similar structure with adenosine and potential function of inhibiting transcription by preventing mRNA elongation, we tested whether adenosine and other deoxynucleoside could shift circadian phase. […] Therefore we further tested whether cordycepin utilize adenosine transporter to enter cell or utilize adenosine deaminase to degrade.
One prominent character of zeitgeiber is phase dependent function. Therefore, we further tested whether cordycepin also has the character.

The test system of experiment [3] is SCN culture slice. Kind of experiment: Ex vivo SCN slice culture from Per2::LUC mice, lumicycle. In kind it is cell-based, mouse. The source says:
Tissue culture, drug treatment and Real-Time Monitoring of Circadian Oscillations: 8 week-old male mPer2 Luciferase knockin mice were Sacrificed cervical dislocation. Then wipe the skin and neck with cotton containing 70% ethanol in a sterile hood. For SCN slice culture, firstly remove the eye balls from the head with scissors, decapitate and cut the skin. Then open the skull, remove all bone until the olfactory bulbs can be seen, cut the optic nerve between the olfactory bulbs and the hemispheres, and finally harvest the whole brain into ice cold HBSS. Trim the brain in HBSS by removing the cerebellum and olfactory bulbs. Attach the brain to a sample tray by glue with the rostral tip upwards and ventral surface closest to the cutting blade, then immediately fill the tray with ice cold HBSS and set the tray to the vibratome. Set the vibratome frequency at the maximum and the speed to the medium. To reach the SCN area quickly, the start cutting off thicker sections should be 500-800 μm. Reduce the sections thicker to 100 μm when the optic chiasm becomes wider. When the two SCN nuclei start to appear, collect the slice with transfer pipettes and check slices under dissecting microscope. […] Data was extract and analyzed with LumiCycle Analysis software. […]

Experiment [4] has as its system E-box genes. Kind of experiment: Nascent pre-mRNA sequencing (nascent-seq) of U2OS cells. Format: cell-based, human. The source says: Manipulating DRB's well characterized target CDK9 protein with AID degron mimics the phase shift curve of DRB in Per2-dLuc cells. […] Using nascent seq experiment, we found DRB treatment repress majority genes expression, but exclusively activates E-box containing gene both in vitro (FIG. 4).
(red color). […] Thus, perhaps the partial inhibition of CDK9 stimulates, rather than represses, the transcription of E-box genes. Right napel is UCSC genome browser views of E-box containing (NR1D1 and DBP) or non-E-box containing (BMAL1 and CRY1) clock genes

In experiment [5] the test system is kidney clocks. Kind of experiment: Phase shift of kidney clock. Format: cell-based.
For experiment [6], the system named is PER2 locus. Kind of experiment: ChIP-qPCR analysis for the PER2 locus. Format: cell-based. The procedure: Human and mouse circadian oscillators are driven by interlocked transcriptional and translational feedback loop. Bmal1 and Clock are transcriptional factors and function as positive arm to active negative arm genes transcription, including Per and Cry. Per and Cry are transcriptional repressor and feedback repress Bmal1/Clock's transcription activity thereby inhibit its own transcription. […] We also confirmed this by ChIP-qPCR experiments. Cordycepin treatment 30 min immediately release Cry1/2 and Ruvbl2 binding at Per2 gene promoter.
For orientation: Quantitative PCR measures a nucleic acid by following its amplification.

On to `CCCCCCCC(=O)Nc1ncnc2c1ncn2[C@@H]1O[C@H](CO)C[C@H]1O`, for which the “With Pentostadin Cell Assay: Dose effect” value in experiment [1] is “Dose effect (15 mg/kg)”. Consider `Nc1nccc2c1ncn2[C@@H]1O[C@H](CO)[C@@H](O)[C@H]1O` [3-deazaadenosine, 3-Deazaadenosine], for which the “effect on the clock phase” value in experiment [2] is listed as “can shift circadian phase”. On the same count and under the same terms, in the case of `Nc1ncnc2c1ccn2[C@@H]1O[C@H](CO)[C@@H](O)[C@H]1O` [7-deazaadenosine, tubercidin] it was “can shift circadian phase”; in that of `Nc1ncnc2c1ncn2[C@@H]1O[C@H](CO)[C@H](O)[C@H]1O` [(3′R)-adenosine, 3′-(R)-adenosine], “can shift circadian phase”.

On to `OC[C@H]1O[C@@H](n2cnc3cc(Cl)c(Cl)cc32)[C@H](O)[C@@H]1O` [DRB, 5,6-dichloro-1-β-D-ribobenzimidazole], for which the “clock phase of SCN slice” value in experiment [3] is reported as “shift the phase”. For the same compound, in experiment [4] (1, 2, 4 h post administration), the “nascent transcription of E-box genes” value is listed as “all up-regulated”. The “newly synthesized mRNA of the majority of genes” value in experiment [4] (within the first hour) is reported as “reduced”. Further, in experiment [5], the “clock phase of kidney” value was “shift the phase”. Further, in experiment [6], the “binding of BMAL1 at PER2 locus” value was “remained unchanged” and the “binding of CRY2/RUVBL2 at PER2 locus” value was “released”. Take `CCCCCCCC(=O)Nc1ncnc2c1ncn2[C@@H]1O[C@H](CO)[C@H](O)[C@H]1O` [Pro-CA04, N-octanoyl-9-(P-D-xylofuranosyl)-adenine]: the “adaption time after 8 phase advance” value in experiment [1] (DMSO 10 days) is recorded as roughly 5 days. With `Nc1ncnc2c1ncn2[C@@H]1O[C@H](CO)[C@@H](O)[C@H]1O` [adenosine], the “effect on phase effect induced by cordycepin” value in experiment [2] (excessive amount) was “inhibits the phase effect induced by cordycepin”. Further, the “effect on the clock phase” value in experiment [2] is given as “not”. For `CCCCCCCC(=O)Nc1ncnc2c1ncn2[C@@H]1O[C@H](CO)[C@H](O)[C@H]1O` [drawing 329], in experiment [1], the “With Pentostadin Cell Assay: Dose effect” value was “Dose effect (15 mg/kg)”. Turning to `OC[C@H]1O[C@@H](n2cnc3c2NC=NC[C@H]3O)C[C@@H]1O` [pentostatin], the “effect on the clock phase” value in experiment [2] is “does not affect the clock phase”; in experiment [2] (listed as Pentostatin) it was “does not affect the clock at all”.
